The record followed here is ChEMBL document CHEMBL5352429, “Designed symmetrical β-hairpin peptides for treating multidrug-resistant salmonella typhimurium infections” (Eur J Med Chem, 2022).

In one data set the test system is RAW264.7. Kind of data set: Cytotoxicity against mouse RAW264.7 cells infected with Salmonella typhimurium DT104 assessed as cell viability at 1 times of MIC measured at 180 min by MTT assay. Format: toxicity, cell-based. The settings on record: raw264.7, 3 h.
The subject of the next data set is Erythrocyte. Briefly: Hemolytic activity in human Red blood cells assessed as hemolysis incubated for 1 hrs by absorbance based microplate reader analysis. The format is toxicity, cell-based.
Data set [1] concerns Salmonella typhimurium. Kind of data set: Antibacterial activity against multi-drug resistant Salmonella typhimurium DT104 infected in ICR mouse model assessed as reversal of mouse vigour loss at 2 mg/kg, ip administered for 3 days and measured on day 7. The format is functional, organism-based. Particulars: Salmonella enterica subsp. enterica serovar Typhimurium, time 7.0 day.

Data set [2] has as its system Salmonella typhimurium. Kind of data set: Antibacterial activity against multi-drug resistant Salmonella typhimurium DT104 infected in ICR mouse model assessed as reversal of body weight loss at 2 mg/kg, ip administered for 3 days and measured on day 7. Format: functional, organism-based. The settings on record: Salmonella enterica subsp. enterica serovar Typhimurium, time 7.0 day.

Data set [3] concerns Salmonella enterica subsp. enterica serovar Paratyphi B. Kind of data set: Antibacterial activity against Salmonella paratyphi B CICC 21495 incubated overnight by standard microtiter dilution method. The format is functional.
The subject of the next data set is Salmonella paratyphi. Kind of data set: Antibacterial activity against Salmonella paratyphi A CICC 21501 incubated overnight by standard microtiter dilution method. The format is functional. The settings on record: Salmonella enterica subsp. enterica serovar Paratyphi A.
Data set [4] deals with Staphylococcus aureus. Kind of data set: Antibacterial activity against methicillin-resistant Staphylococcus aureus ATCC 43300 incubated overnight by standard microtiter dilution method. The format is functional.
The subject of the next data set is Lipopolysaccharide (LPS). Kind of data set: Displacement of BODIPY-TR-cadaverine from Salmonella typhimurium LPS assessed as increase in fluorescence intensity by fluorescence spectrophotometric analysis. Particulars: Salmonella enterica subsp. enterica serovar Typhimurium; dose 0.25-8 µg/ml.
Data set [5] concerns Salmonella enterica subsp. enterica serovar Wandsworth. Kind of data set: Antibacterial activity against Salmonella wandsworth CICC 21504 incubated overnight by standard microtiter dilution method. Format: functional.
For data set [6], the system named is Salmonella typhimurium. Kind of data set: Antibacterial activity against multi-drug resistant Salmonella typhimurium DT104 infected in ICR mouse model assessed as reversal of mouse vitality loss at 2 mg/kg, ip administered for 3 days and measured on day 7. The format is functional, organism-based. Particulars: Salmonella enterica subsp. enterica serovar Typhimurium, time 7.0 day.

Data set [7] relates to Salmonella typhimurium. Kind of data set: Antibacterial activity against Salmonella typhimurium DT104 ATCC 700408 incubated overnight by standard microtiter dilution method. Format: functional. Particulars: Salmonella enterica subsp. enterica serovar Typhimurium.
The subject of the next data set is Escherichia coli. Briefly: Antibacterial activity against Escherichia coli O157:H7 CICC 21530 incubated overnight by standard microtiter dilution method. The format is functional.
Another data set has as its system Candida albicans. Kind of data set: Antifungal activity against Candida albicans ATCC 10231 incubated overnight by standard microtiter dilution method. The format is functional.
The subject of data set [8] is Salmonella enterica subsp. enterica serovar Blockley. Briefly: Antibacterial activity against Salmonella blockley CICC 21489 incubated overnight by standard microtiter dilution method. The format is functional.
Data set [9] deals with Staphylococcus aureus. Briefly: Antibacterial activity against Staphylococcus aureus ATCC 29213 incubated overnight by standard microtiter dilution method. The format is functional.
The test system of data set [10] is Salmonella typhimurium. Kind of data set: Antibacterial activity against multi-drug resistant Salmonella typhimurium DT104 infected in ICR mouse model assessed as fecal shedding of bacteria at 2 mg/kg, ip administered for 3 days and measured on day 7. The format is functional, organism-based. The settings on record: Salmonella enterica subsp. enterica serovar Typhimurium, time 7.0 day.

Data set [11] has as its system Salmonella enterica subsp. enterica serovar Paratyphi C. Kind of data set: Antibacterial activity against Salmonella paratyphi C CICC 21512 incubated overnight by standard microtiter dilution method. The format is functional.
The subject of a further data set is Salmonella enteritidis. Briefly: Antibacterial activity against Salmonella enteritidis CICC 21527 incubated overnight by standard microtiter dilution method. Format: functional. Particulars: Salmonella enterica subsp. enterica serovar Enteritidis.
Data set [12] has as its system Salmonella enterica subsp. enterica serovar Choleraesuis. Kind of data set: Antibacterial activity against Salmonella enterica subsp. enterica serovar Choleraesuis ATCC 13312 incubated overnight by standard microtiter dilution method. Format: functional.
The test system of another data set is Enterococcus faecalis. Briefly: Antibacterial activity against Enterococcus faecalis ATCC 29212 incubated overnight by standard microtiter dilution method. Format: functional.
For data set [13], the system named is Salmonella typhimurium. Kind of data set: Antibacterial activity against Salmonella typhimurium CICC 21483 incubated overnight by standard microtiter dilution method. Format: functional. The settings on record: Salmonella enterica subsp. enterica serovar Typhimurium.
Data set [14] deals with Salmonella enterica subsp. enterica serovar Choleraesuis. Briefly: Antibacterial activity against Salmonella enterica subsp. enterica serovar Choleraesuis CICC 21493 incubated overnight by standard microtiter dilution method. The format is functional.
Data set [15] deals with Salmonella enterica subsp. enterica serovar Dublin. Kind of data set: Antibacterial activity against Salmonella dublin CICC 21497 incubated overnight by standard microtiter dilution method. Format: functional.
For data set [16], the system named is Staphylococcus epidermidis. Kind of data set: Antibacterial activity against methicillin-resistant Staphylococcus epidermidis ATCC 12228 incubated overnight by standard microtiter dilution method. Format: functional.
The test system of data set [17] is Salmonella typhimurium. Kind of data set: Antibacterial activity against Salmonella typhimurium CICC 21913 incubated overnight by standard microtiter dilution method. The format is functional. The settings on record: Salmonella enterica subsp. enterica serovar Typhimurium.

Activity calls are given as the source filed them. No cut-off for these calls is given here.

For the sequence POLYMYXIN B [listing 1 of 2 here], in the data set with RAW264.7, the Activity is more than 90%. Besides, the MHC with Erythrocyte is more than 128 µg/mL.
As for POLYMYXIN B [listing 2 of 2 here], the result in the data set with Salmonella typhimurium [1], in the data set with Salmonella typhimurium [2], in the data set on Salmonella typhimurium [6] and in the data set with Salmonella typhimurium [10] was inactive. Further, the MIC is 2 µg/mL in [3]; 4 µg/mL in the data set with Salmonella paratyphi; more than 128 µg/mL in the data set with Staphylococcus aureus [4]; 1 µg/mL in data set [5]; 4 µg/mL in the data set on Salmonella typhimurium [7]; 32 µg/mL in the data set on Escherichia coli. Besides, the MIC with Candida albicans is 64 µg/mL; in data set [8] it was 1 µg/mL; against Staphylococcus aureus [9], 64 µg/mL; in data set [11], 2 µg/mL; against Salmonella enteritidis, 2 µg/mL; in data set [12], 1 µg/mL. The MIC against Enterococcus faecalis was found to be 128 µg/mL; with Salmonella typhimurium [13], 2 µg/mL; in data set [14] it was 4 µg/mL; in data set [15], 2 µg/mL; in [16] it was 4 µg/mL; against Salmonella typhimurium [17] it was 2 µg/mL. The Activity result in the data set on Lipopolysaccharide (LPS) is “Dose-Dependent Effect”.

As a reminder, the MIC is the lowest concentration that inhibits growth of the organism.
